Data set [1] in a line: Drug release measurements from coated silicon wafers, UV-Vis. The class given is physicochemical. As for the experimental part:
Drug release measurements: The coated silicon wafers were added into the wells of 96 well-plate and immersed in PBS buffer (200 μL) was added to each well. At day 1 and day 7, the solution was collected and the drug concentration was measured using UV-Vis spectroscopy and standard curves prepared using pure bioactive agents. The released solution was diluted to 1 mL using PBS before the measurements.

For data set [2] the following is noted: cited from earlier work.
The conditions of data set [3]: cited from earlier work. This is another data set of the same source.
The mark [4] stands for this setting: day 1, coated silicon wafer in PBS.
The mark [5] stands for this setting: day 7, coated silicon wafer in PBS.

Bounds are passed on as bounds.

In the case of `CC(=O)O[C@@]12CO[C@@H]1C[C@H](O)[C@@]1(C)C(=O)[C@H](O)C3=C(C)[C@@H](OC(=O)[C@H](O)[C@@H](NC(=O)OC(C)(C)C)c4ccccc4)C[C@@](O)([C@@H](OC(=O)c4ccccc4)[C@H]21)C3(C)C` [Docetaxel], the “concentration of eluted drug” value is 12.5 ppm (microgram/mL) in data set [1] (setting [4]) and 13.7 ppm (microgram/mL) in data set [1] (setting [5]). In addition, the “Net charge at pH 7.4” value in data set [2] is “Neutral”. For the same molecule, the “Water solubility” value in data set [3] is under 0.01 mg/mL.
In the case of `CC(=O)O[C@H]1C(=O)[C@@]2(C)[C@H]([C@H](OC(=O)c3ccccc3)[C@]3(O)C[C@H](OC(=O)[C@H](O)[C@@H](NC(=O)c4ccccc4)c4ccccc4)C(C)=C1C3(C)C)[C@]1(OC(C)=O)CO[C@@H]1C[C@@H]2O` [Paclitaxel], the “concentration of eluted drug” value in data set [1] (setting [4]) is 1.3 ppm (microgram/mL); in data set [1] (setting [5]), 1.4 ppm (microgram/mL).
In the case of `CO[C@H]1/C=C/O[C@@]2(C)Oc3c(C)c(O)c4c(O)c(c(/C=N/N5CCN(C)CC5)c(O)c4c3C2=O)NC(=O)/C(C)=C\C=C\[C@H](C)[C@H](O)[C@@H](C)[C@@H](O)[C@@H](C)[C@H](OC(C)=O)[C@@H]1C` [Rifampicin], in data set [3], the “Water solubility” value is given as 0.0413 mg/mL.
Consider `NC[C@H]1O[C@H](O[C@H]2[C@H](O)[C@@H](O[C@H]3O[C@H](CO)[C@@H](O)[C@H](N)[C@H]3O)[C@H](N)C[C@@H]2N)[C@H](N)C[C@@H]1O` [Tobramycin], for which, in data set [2], the “Net charge at pH 7.4” value was “Neutral”. In data set [3], the “Water solubility” value is given as 53.7 mg/mL.
Consider Gentamicin, for which the “Net charge at pH 7.4” value in data set [2] is “Neutral”.
Take Penicillin: in data set [2], the “Net charge at pH 7.4” value is on record as “Neutral”. For the same molecule, the “Water solubility” value in data set [3] was over 30 mg/mL.
